Source: patent US20130156762A1, “Mechanically-Activated Cation Channels” (The Scripps Research Institute, priority 2010, published 2013)
Blank lines part the entries; values can stand above or below the compound they belong to.

Key:
N2A cells = assay: Whole-cell mechanical stimulation (piezo-driven glass probe), MA currents in N2A cells; assay type: cell-based, mouse
Procedure: Cell culture and transient transfection. Neuro2A cells were grown in Eagle's Minimum Essential Medium containing 4.5 mg.ml^−1 glucose, 10% fetal bovine serum, 50 units.ml^−1 penicillin and 50 μg.ml^−1 streptomycin. C2C12 or Human Embryonic Kidney 293T (HEK293T) cells were grown in Dulbecco's Modified Eagle Medium containing 4.5 mg.ml^−1 glucose, 10% fetal bovine serum, 50 units.ml^−1 penicillin and 50 μg.ml^−1 streptomycin. Cells were plated onto 35 mm dishes or 12-mm round glass coverslips placed in 24-well plates and transfected using lipofectamine 2000 (Invitrogen) according to the manufacturer's instructions. For Piezo1 overexpression experiment, 500 to 1000 ng.ml^−1 of Piezo1-IRES-GFP or vector only were transfected, and cells were recorded 12-48 hours later. For Piezo2 overexpression experiments, 600 to 1000 ng.ml^−1 of mPiezo2 or vector were co-transfected with 300 ng.ml^−1 GFP to identify transfected cells and cells were recorded 12-48 hours later. […]
(§1) Patch-clamp experiments were performed in standard whole-cell or cell attached recordings using an Axopatch 200B amplifier (Axon Instruments). […] Voltages were not corrected for a liquid junction potential excepted for ion selectivity experiments were LJP were calculated using Clampex 10.1 software (Axon Instruments). […]

Piezo1 = target: T1, Piezo1 (Mus musculus, UniProt E2JF22); assay: Block of Piezo1-induced MA currents in Piezo1-expressing cells (whole-cell); assay type: cell-based; conditions: for Percent block of Piezo1-induced MA current: 30 μM
T1 construct: expressed in transfected cells; HEK293T for immunocytochemistry
Procedure: (§2) Patch-clamp experiments were performed in standard whole-cell or cell attached recordings using an Axopatch 200B amplifier (Axon Instruments). Patch pipettes had resistance of 2-3 MΩ when filled with an internal solution consisting of (in mM) 133 CsCl, 10 HEPES, 5 EGTA, 1 CaCl2, 1 MgCl2, 4 MgATP, and 0.4 Na2GTP (pH adjusted to 7.3 with CsOH). The extracellular solution consisted of (in mM) 127-130 NaCl, 3 KCl, 1 MgCl2, 10 HEPES, 2.5 CaCl2, 10 glucose (pH adjusted to 7.3 with NaOH). NMDG solution consisted of (in mM) 150 NMDG, 10 HEPES (pH 7.5). For ion selectivity experiments, internal solution consisted of (in mM) 150 CsCl, 10 Hepes (pH 7.3 with CsOH), monovalent external solutions consisted of (in mM) 150 NaCl or KCl, 10 HEPES (pH 7.3 with NaOH or KOH) and divalent external solutions consisted of (in mM) 100 CaCl2 or MgCl2, 10 HEPES (pH 7.3 with CsOH). For cell attached recordings, pipette were filled with a solution consisting of (in mM) 130 NaCl, 5 KCl, 10 HEPES, 1 CaCl2, 1 MgCl2, 10 TEA-C1 (pH 7.3 with NaOH) and external solution used to zero the membrane potential consisted of (in mM) 140 KCl, 10 HEPES, 1 MgCl2, 10 glucose (pH 7.3 with KOH). All experiments were done at room temperature. Currents were sampled at 20 kHz and filtered at 2 kHz. Voltages were not corrected for a liquid junction potential excepted for ion selectivity experiments were LJP were calculated using Clampex 10.1 software (Axon Instruments). Leak currents before mechanical stimulations were subtracted off-line from the current traces. 10 mM ruthenium red stock solution was prepared in DMSO; 100 mM gadolinium stock solution, in water.
(§3) For whole-cell recordings mechanical stimulation was achieved using a fire-polished glass pipette (tip diameter 3-4 μm) positioned at an angle of 80° to the cell being recorded. Downward movement of the probe toward the cell was driven by a Clampex controlled piezo-electric crystal microstage (E625 LVPZT Controller/Amplifier; Physik Instrumente). […] Inward MA currents were recorded at a holding potential of −80 mV. […]

C2C12 cells = assay: Whole-cell mechanical stimulation, MA currents in C2C12 cells; assay type: cell-based, mouse; conditions: NMDG-chloride external solution, data not shown
Procedure: Cell culture and transient transfection. Neuro2A cells were grown in Eagle's Minimum Essential Medium containing 4.5 mg.ml^−1 glucose, 10% fetal bovine serum, 50 units.ml^−1 penicillin and 50 μg.ml^−1 streptomycin. C2C12 or Human Embryonic Kidney 293T (HEK293T) cells were grown in Dulbecco's Modified Eagle Medium containing 4.5 mg.ml^−1 glucose, 10% fetal bovine serum, 50 units.ml^−1 penicillin and 50 μg.ml^−1 streptomycin. Cells were plated onto 35 mm dishes or 12-mm round glass coverslips placed in 24-well plates and transfected using lipofectamine 2000 (Invitrogen) according to the manufacturer's instructions. For Piezo1 overexpression experiment, 500 to 1000 ng.ml^−1 of Piezo1-IRES-GFP or vector only were transfected, and cells were recorded 12-48 hours later. For Piezo2 overexpression experiments, 600 to 1000 ng.ml^−1 of mPiezo2 or vector were co-transfected with 300 ng.ml^−1 GFP to identify transfected cells and cells were recorded 12-48 hours later.
as §1

Piezo2 = target: T2, Piezo2 (Mus musculus, UniProt Q8CD54); assay: Block of Piezo2-induced MA currents in Piezo2-expressing cells (whole-cell); assay type: cell-based; conditions: for Percent block of Piezo2-induced MA currents: 30 μM
T2 construct: expressed in transfected cells; host or cells: N2A (with Piezo1 siRNA) or HEK293T; A13: N2A
T2 sequence (Q8CD54 whole entry): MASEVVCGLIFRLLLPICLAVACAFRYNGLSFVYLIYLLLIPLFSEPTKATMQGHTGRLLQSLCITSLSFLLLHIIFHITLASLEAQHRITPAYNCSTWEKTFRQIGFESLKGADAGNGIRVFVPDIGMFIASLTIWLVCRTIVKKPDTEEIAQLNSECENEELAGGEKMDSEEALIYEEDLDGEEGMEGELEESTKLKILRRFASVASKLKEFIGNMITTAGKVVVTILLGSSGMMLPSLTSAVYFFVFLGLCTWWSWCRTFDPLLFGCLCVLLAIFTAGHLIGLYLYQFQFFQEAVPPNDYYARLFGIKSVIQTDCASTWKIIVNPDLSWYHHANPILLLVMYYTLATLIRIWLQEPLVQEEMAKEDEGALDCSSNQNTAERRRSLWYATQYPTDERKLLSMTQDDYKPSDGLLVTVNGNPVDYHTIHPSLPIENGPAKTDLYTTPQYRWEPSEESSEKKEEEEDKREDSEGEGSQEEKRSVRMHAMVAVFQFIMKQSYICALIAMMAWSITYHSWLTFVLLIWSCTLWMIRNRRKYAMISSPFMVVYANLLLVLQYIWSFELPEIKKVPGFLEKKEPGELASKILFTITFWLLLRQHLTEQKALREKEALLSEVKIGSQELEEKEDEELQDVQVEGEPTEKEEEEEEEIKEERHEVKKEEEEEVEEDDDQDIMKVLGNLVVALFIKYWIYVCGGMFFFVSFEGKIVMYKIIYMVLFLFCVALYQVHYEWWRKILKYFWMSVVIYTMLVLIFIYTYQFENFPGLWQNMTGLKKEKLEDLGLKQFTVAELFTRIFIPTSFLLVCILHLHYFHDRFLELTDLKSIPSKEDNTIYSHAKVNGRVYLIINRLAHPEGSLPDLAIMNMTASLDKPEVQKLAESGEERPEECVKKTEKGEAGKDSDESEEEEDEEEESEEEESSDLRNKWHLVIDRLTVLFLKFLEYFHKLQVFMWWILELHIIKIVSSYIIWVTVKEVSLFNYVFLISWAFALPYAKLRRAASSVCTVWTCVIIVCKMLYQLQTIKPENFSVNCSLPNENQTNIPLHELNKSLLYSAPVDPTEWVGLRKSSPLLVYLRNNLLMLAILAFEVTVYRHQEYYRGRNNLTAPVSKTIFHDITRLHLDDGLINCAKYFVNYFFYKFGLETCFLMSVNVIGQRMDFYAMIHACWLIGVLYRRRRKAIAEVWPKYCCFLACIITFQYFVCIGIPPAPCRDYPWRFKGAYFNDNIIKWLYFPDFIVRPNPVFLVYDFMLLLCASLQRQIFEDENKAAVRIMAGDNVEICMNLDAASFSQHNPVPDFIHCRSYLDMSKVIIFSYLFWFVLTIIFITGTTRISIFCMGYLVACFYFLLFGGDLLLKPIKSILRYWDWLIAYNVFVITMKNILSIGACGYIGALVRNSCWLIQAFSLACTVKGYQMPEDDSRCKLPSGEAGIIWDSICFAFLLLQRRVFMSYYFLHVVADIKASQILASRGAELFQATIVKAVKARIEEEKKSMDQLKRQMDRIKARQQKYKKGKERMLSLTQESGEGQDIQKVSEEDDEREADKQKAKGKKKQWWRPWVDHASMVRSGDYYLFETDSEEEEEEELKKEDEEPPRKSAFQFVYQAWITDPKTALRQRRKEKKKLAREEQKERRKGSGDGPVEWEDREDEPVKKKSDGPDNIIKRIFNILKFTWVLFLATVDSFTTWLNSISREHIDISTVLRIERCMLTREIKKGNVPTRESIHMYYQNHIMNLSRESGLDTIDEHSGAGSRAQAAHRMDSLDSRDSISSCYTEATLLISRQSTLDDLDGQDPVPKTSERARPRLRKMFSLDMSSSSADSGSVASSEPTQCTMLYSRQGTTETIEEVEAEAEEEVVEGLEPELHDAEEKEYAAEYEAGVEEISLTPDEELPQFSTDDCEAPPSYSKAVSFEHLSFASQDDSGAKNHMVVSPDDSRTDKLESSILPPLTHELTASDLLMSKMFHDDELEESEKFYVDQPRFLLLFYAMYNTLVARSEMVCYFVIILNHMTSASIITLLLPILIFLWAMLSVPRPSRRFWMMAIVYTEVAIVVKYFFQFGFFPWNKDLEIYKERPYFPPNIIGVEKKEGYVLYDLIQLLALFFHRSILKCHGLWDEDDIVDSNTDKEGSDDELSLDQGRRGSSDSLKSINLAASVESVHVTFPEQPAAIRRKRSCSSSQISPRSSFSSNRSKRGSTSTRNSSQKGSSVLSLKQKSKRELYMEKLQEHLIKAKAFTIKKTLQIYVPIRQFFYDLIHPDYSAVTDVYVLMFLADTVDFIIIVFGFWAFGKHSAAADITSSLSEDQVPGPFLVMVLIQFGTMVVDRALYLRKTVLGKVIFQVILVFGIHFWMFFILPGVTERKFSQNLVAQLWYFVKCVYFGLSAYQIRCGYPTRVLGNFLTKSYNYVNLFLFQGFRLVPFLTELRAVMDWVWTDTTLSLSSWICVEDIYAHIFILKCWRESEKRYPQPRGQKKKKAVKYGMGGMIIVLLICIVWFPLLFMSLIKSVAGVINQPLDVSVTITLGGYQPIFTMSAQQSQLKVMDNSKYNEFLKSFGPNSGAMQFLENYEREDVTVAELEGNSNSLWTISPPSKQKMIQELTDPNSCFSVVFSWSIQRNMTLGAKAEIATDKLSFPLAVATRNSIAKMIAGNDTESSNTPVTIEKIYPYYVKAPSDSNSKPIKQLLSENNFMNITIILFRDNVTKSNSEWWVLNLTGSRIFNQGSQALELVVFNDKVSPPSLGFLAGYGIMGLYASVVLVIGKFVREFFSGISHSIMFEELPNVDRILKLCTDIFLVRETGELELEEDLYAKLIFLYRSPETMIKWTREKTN
Procedure: as §2, §3

SMILES: O=C(O)CN(CCOCCOCCN(CC(=O)O)CC(=O)O)CC(=O)O [EGTA]
Effect on MA currents (N2A cells; extracellular perfusion of divalent-free 5 mM EGTA solution for 30-60 min): did not suppress

Effect on inward Piezo1-induced MA currents (Piezo1; NMDG substituted in extracellular bathing solution (150 mM NMDG-Cl)): suppressed
Effect on Piezo2-induced currents (Piezo2; perfusion with NMDG-Cl solution): suppressed
SMILES: CNC[C@H](O)[C@@H](O)[C@H](O)[C@H](O)CO [NMDG]
Effect on inward endogenous MA currents (C2C12 cells): suppressed
Effect on inward endogenous MA currents (N2A cells; NMDG-chloride external solution, data not shown): suppressed

SMILES: [Gd] [gadolinium]
Percent block of Piezo1-induced MA current (Piezo1): 84.3±3.8%
Percent block of Piezo2-induced MA currents (Piezo2): 85.0±3.7%

Percent block of Piezo1-induced MA current (Piezo1): 74.6±2.5%
Percent block of Piezo2-induced MA currents (Piezo2): 79.2±4.2%
SMILES: N.N.N.N.N.N.N.N.N.N.N.N.N.N.[Cl-].[Cl-].[Cl-].[Cl-].[Cl-].[Cl-].[O-2].[O-2].[Ru+3].[Ru+3].[Ru+4] [ruthenium red]
